Assay results from the supplement of paper PMC9912026.

System: A375_NRAS_Q61K_DOXind
Test: pERK immunofluorescence relative to uninduced (no doxycycline), no-drug control; higher = more ERK phosphorylation (less pathway inhibition)
Settings: drug treatment time 24 h, doxycycline pre-induction time 24 h, vemurafenib background 0 µM
Description: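 pERK was measured by immunofluorescence with FLAG-negative cells excluded. Averages of 2 technical replicates.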

CCCS(=O)(=O)Nc1ccc(F)c(C(=O)c2c[nH]c3ncc(-c4ccc(Cl)cc4)cc23)c1F [Vemurafenib] + O=C(c1ccc(F)c(F)c1Nc1ccc(I)cc1F)N1CC(O)([C@@H]2CCCCN2)C1 [Cobimetinib]
pERK immunofluorescence
Settings | drug B concentration 0 µM | drug B concentration 0.0001 µM | drug B concentration 0.0003162 µM | drug B concentration 0.001 µM | drug B concentration 0.00316228 µM | drug B concentration 0.01 µM | drug B concentration 0.0316228 µM | drug B concentration 0.1 µM | drug B concentration 0.316228 µM | drug B concentration 1 µM
drug A concentration 0.0316 µM, doxycycline 0 ng/mL | – | – | – | – | – | – | 0.0338 | 0.0248 | 0.0205 | 0.0197
drug A concentration 0.0316 µM, doxycycline 1000 ng/mL | – | – | – | – | – | 0.964 | 0.683 | 0.254 | 0.0677 | 0.0258
drug A concentration 0.1 µM, doxycycline 0 ng/mL | 0.316 | 0.286 | 0.274 | 0.161 | 0.0758 | 0.0428 | 0.0306 | 0.0226 | 0.0207 | 0.0198
drug A concentration 0.1 µM, doxycycline 1000 ng/mL | 1.2 | 1.18 | 1.31 | 1.21 | 1.12 | 1.05 | 0.766 | 0.294 | 0.0731 | 0.0266
drug A concentration 0.316228 µM, doxycycline 0 ng/mL | 0.107 | 0.0916 | 0.1 | 0.0715 | 0.0458 | 0.0352 | 0.0271 | 0.0216 | 0.0197 | 0.019
drug A concentration 0.316228 µM, doxycycline 1000 ng/mL | 1.17 | 1.21 | 1.26 | 1.25 | 1.15 | 1.08 | 0.736 | 0.279 | 0.069 | 0.0251
drug A concentration 1 µM, doxycycline 0 ng/mL | 0.0542 | 0.0554 | 0.0566 | 0.0507 | 0.0389 | 0.0323 | 0.0252 | 0.0202 | 0.019 | 0.0186
drug A concentration 1 µM, doxycycline 1000 ng/mL | 1.12 | 1.21 | 1.32 | 1.26 | 1.15 | 1.06 | 0.675 | 0.212 | 0.0608 | 0.0248
drug A concentration 3.16 µM, doxycycline 0 ng/mL | 0.0469 | 0.0457 | 0.0485 | 0.044 | 0.038 | 0.0293 | 0.0233 | 0.02 | 0.0191 | 0.0188
drug A concentration 3.16 µM, doxycycline 1000 ng/mL | 1.07 | 1.14 | 1.22 | 1.27 | 1.12 | 0.941 | 0.478 | 0.129 | 0.0468 | 0.0219
drug A concentration 10 µM, doxycycline 0 ng/mL | 0.0377 | 0.0388 | 0.0357 | 0.0351 | 0.0307 | 0.0237 | 0.0219 | 0.0199 | 0.019 | 0.0193
drug A concentration 10 µM, doxycycline 1000 ng/mL | 0.905 | 1.01 | 1.04 | 1.02 | 0.868 | 0.553 | 0.145 | 0.0465 | 0.0237 | 0.0194
